In patent publication US6184217A (Cephalon, Inc., priority 1997, dated 2001):

Tests used:
[1] = biological target: monoamine oxidase-A (Homo sapiens, UniProt P21397); assay: Monoamine oxidase-A inhibition in vitro; format: biochemical; details: FIG. 1
[2] = test system: uptake of catecholamines into nerve endings; assay: Uptake of catecholamines into nerve endings; format: biochemical
[3] = test system: glutamatergic neurons in layer 2 of the entorhinal cortex; assay: NMDA entorhinal cortex lesion model; format: in vivo, rats; details: 1 mg/kg s.c. daily, p<0.05
Excerpt: Glutamate-containing neurons in layer 2 of the entorhinal cortex project to the molecular layer of the dentate gyrus, where they form synapses on the dendrites of the dentate gyrus granule cells. A lesion can be created in layer 2 of entorhinal cortex by stereotaxic injection of the excitotoxin N-methyl-D-asparate (NMDA). Under sodium pentobarbitol anesthesia, rats received an injection of NMDA (15 nmols/site) at each of 2 sites in the entorhinal cortex. Two weeks later, the rats were sacrificed and perfused with a 50 mM sodium sulfide solution. The brains were removed, sectioned in the horizontal plane at a thickness of 40 μm, and stained with either Cresyl violet or Timm'stain. The survival of neurons in layer 2 of entorhinal cortex was assessed in Cresyl violet stained sections, while the integrity of their axon terminals in the molecular layer of the dentate gyrus was measured in alternate sections stained with Timm's stain.
Injection of NMDA destroyed 62±11% (s.e.m.) of entorhinal layer 2 and decreased the area of the dentate gyrus middle molecular layer by 19±6% (s.e.m.). […] Thus, Compound A protected neurons in the entorhinal cortex from an excitotoxic lesion and maintained the integrity of their axon terminals in the dentate gyrus.

monoamine oxidase-A, sequence (P21397 whole entry): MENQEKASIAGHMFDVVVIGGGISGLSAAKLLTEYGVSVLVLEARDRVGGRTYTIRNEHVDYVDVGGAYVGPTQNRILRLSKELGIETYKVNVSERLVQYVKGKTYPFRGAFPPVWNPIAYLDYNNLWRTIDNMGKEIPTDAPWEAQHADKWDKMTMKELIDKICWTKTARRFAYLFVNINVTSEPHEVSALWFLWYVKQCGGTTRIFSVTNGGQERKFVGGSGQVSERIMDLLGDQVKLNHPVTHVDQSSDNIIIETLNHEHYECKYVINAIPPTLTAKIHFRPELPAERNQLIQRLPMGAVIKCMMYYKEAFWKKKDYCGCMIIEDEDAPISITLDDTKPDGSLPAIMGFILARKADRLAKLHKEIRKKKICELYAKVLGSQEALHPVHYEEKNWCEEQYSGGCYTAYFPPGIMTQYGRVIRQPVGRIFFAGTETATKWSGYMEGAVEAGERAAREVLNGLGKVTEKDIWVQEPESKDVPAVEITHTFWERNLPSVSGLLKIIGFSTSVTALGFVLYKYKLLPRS

For `CCSCc1ccc2c(c1)c1c3c(c4c5cc(CSCC)ccc5n5c4c1n2C1CC(O)(C(=O)OC)C5(C)O1)CNC3=O` (stereo not shown) [Compound A], the “monoamine oxidase-A inhibition” value [1] was “not a monoamine oxidase-A inhibitor”, the “block of uptake of catecholamines into nerve endings” value [2] was “found not to inhibit monoamine oxidase A or B in vitro (FIGS. 1 and 2) or block uptake of catecholamines into nerve endings” and the “decrease in area of dentate gyrus middle molecular layer” value ([3]; NMDA alone 19±6% decrease) was “prevented the decrease in area of the middle molecular layer”. For the same compound, the “loss of entorhinal layer 2 neurons” value ([3]; s.e.m., NMDA alone 62±11%) was 22±10%.
